Measurements taken from ChEMBL document CHEMBL1221220, “Transport and signaling via the amino acid binding site of the yeast Gap1 amino acid transceptor” (Nat Chem Biol, 2009).
Numbering of substitutions follows the chain as printed. The source made the active and inactive calls. The calls are words filed in the database; no cut-off is given here.

How the values were obtained:
[1] = tested on: T1, General amino-acid permease GAP1 (Saccharomyces cerevisiae), P19145 [I384C]; experiment: Induction of yeast Gap1 I384C mutant-mediated trehalose activation at 2 mM in presence of 10 mM MTSEA treated before compound addition
T1 sequence (whole entry): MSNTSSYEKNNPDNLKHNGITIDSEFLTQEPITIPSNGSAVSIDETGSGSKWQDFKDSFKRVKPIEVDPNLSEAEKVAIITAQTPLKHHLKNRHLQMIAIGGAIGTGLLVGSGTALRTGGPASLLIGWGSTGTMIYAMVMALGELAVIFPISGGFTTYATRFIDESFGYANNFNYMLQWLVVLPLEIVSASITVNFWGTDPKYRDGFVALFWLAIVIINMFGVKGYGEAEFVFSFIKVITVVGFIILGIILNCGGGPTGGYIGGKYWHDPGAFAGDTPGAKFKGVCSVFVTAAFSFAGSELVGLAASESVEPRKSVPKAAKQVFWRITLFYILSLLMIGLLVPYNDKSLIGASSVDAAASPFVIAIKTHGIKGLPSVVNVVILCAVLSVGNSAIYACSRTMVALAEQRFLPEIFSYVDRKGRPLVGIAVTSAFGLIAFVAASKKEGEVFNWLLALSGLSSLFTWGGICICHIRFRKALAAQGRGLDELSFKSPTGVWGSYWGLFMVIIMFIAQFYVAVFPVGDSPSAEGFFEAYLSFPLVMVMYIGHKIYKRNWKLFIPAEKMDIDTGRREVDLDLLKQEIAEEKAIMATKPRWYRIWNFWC

[2] = tested on: T2, General amino-acid permease GAP1 (Saccharomyces cerevisiae), P19145 [L387C]; experiment: Activation of yeast Gap1 L387C mutant-mediated amino acid uptake at 10 mM
T2 sequence (whole entry): T1 sequence (whole entry) with C384I, L387C

[3] = tested on: T3, General amino-acid permease GAP1 (Saccharomyces cerevisiae), P19145 [G390C]; experiment: Induction of yeast Gap1 G390C mutant-mediated trehalose activation at 2 mM in presence of 10 mM MTSEA treated before compound addition
T3 sequence (whole entry): T1 sequence (whole entry) with C384I, G390C

Saccharomyces cerevisiae = experiment: Activation of yeast Gap1 L404 mutant-mediated amino acid uptake at 10 mM
[4] = tested on: T4, General amino-acid permease GAP1 (Saccharomyces cerevisiae), P19145 [A403C]; experiment: Induction of yeast Gap1 A403C mutant-mediated amino acid uptake at 2 mM in presence of 10 mM MTSEA treated before compound addition
T4 sequence (whole entry): T1 sequence (whole entry) with C384I, A403C

inhibition [1]: Active
Activity [2]: inactive
inhibition [3]: Active
Activity (Saccharomyces cerevisiae): inactive
Activity [4]: Active
SMILES: NC(=O)NCCC[C@H](N)C(=O)O
